As a reminder, the Ki is the dissociation constant of the complex between target and ligand, obtained from inhibition or displacement. The term inhibition denotes the share of the control response that was lost under treatment.

One test concerns the target Neuropilin-1 (Rattus norvegicus, UniProt Q9QWJ9). The test is described as follows: Inhibition of biotinylated VEGF-A165 from rat recombinant NRP-1 Fc domain.
Turning to `COc1cc(CNCCO)cc(Cl)c1OCc1ccc(Cl)cc1Cl`, the Ki is 7.3 µM.

Turning to `CCOc1cc(CNCc2ccccc2)cc(Cl)c1OCc1ccccc1Cl`, the inhibition constant Ki was 11.3 µM.

Consider `CCOc1cc(CNCCO)cc(Br)c1OCc1ccc(Cl)cc1Cl`, for which the Ki was found to be 10.7 µM.

On to `COc1cc(CNC(C)c2ccccc2)cc(Br)c1OCc1ccccc1Cl` (configuration not stated), for which the Ki stood at 9.4 µM.

Consider H-ATWLPPR-OH, for which the inhibition constant Ki was determined as 5.2 µM.

The next test concerns the target Neuropilin-1 (Rattus norvegicus) (UniProt Q9QWJ9). Nature of the test: Inhibition of biotinylated VEGF-A165 from rat recombinant NRP-1 Fc domain at 100 uM.
For the compound `OCCNCc1ccc(OCc2ccccc2)c(Cl)c1`, the inhibition was 45.1%.

As for `CC[C@H](C)c1ccccc1OCCCCN(CC)CC`, the inhibition worked out at 41.6%.

As for `CC(C)NCc1ccccc1OCc1ccc(Cl)cc1`, the inhibition amounted to 44.8%.

For the compound `Cc1cc(O)c(C(=O)COc2ccccc2)c(O)c1`, the inhibition came out at 55.3%.

Take `CC(=O)Nc1ccc2nc(-c3ccccc3C)oc2c1`: the inhibition was 53.3%.

As to `Clc1ccc(COc2ccc(CNC3CC3)cc2)cc1`, the inhibition stood at 47.3%.

Take `CCOc1cc(CNCCO)ccc1OCc1ccc(Cl)cc1Cl`: the inhibition stood at 71.5%.

Consider `CC[C@@H](C)NCCCOc1ccc(Cl)c(C)c1C`, for which the inhibition was determined as 52.3%.

For `CCCNCc1ccc(OCc2ccc(Cl)cc2Cl)c(OC)c1`, the inhibition came out at 60.2%.

Consider `COc1cc(CNCCO)cc(Br)c1OCc1ccccc1Cl`, for which the inhibition stood at 60.5%.

Regarding `CCNCc1cc(Cl)c(OCc2ccccc2Cl)c(OC)c1`, the inhibition is 59.2%.

On to H-ATWLPPR-OH, for which the inhibition was 91.5%.

For the origin of these results see ChEMBL document CHEMBL3352596, “Discovery of novel inhibitors of vascular endothelial growth factor-A-Neuropilin-1 interaction by structure-based virtual screening” (Bioorg Med Chem, 2014).
